Test results as given in patent publication US9012500B2, “PKC-ε activator” (Nishizaki Bioinformation Research Institute, priority 2010, dated 2015).

Tested on: dopamine release from the striatum
Assay: Dopamine release from rat striatum sections (HPLC)
Assay type: cell-based

Compound: CCCCC[C@@H]1C[C@@H]1C[C@@H]1C[C@H]1CCCCCCCC(=O)O [α,β-DCP-LA, 8-[(1R,2S)-2-{(1R,2R)-2-pentylcyclopropylmethyl}-cyclopropyl]octanoic acid]
- dopamine release stimulation action compared to the other optical isomers (100 nM, in the presence of nicotine (1 μM), FIG. 10): remarkably high
- concentration at which dopamine release stimulation action reaches maximum (bell-shaped) (rat striatum sections, FIG. 11): about 250 nM
- dopamine release, substance alone vs non-treated group (treated alone, FIG. 12): did not show a remarkable difference
- effect on dopamine release caused by nicotine (with nicotine (1 μM), FIG. 12): remarkably enhanced
